For 27 molecules, Emax results are on record in US9359297B2, “Spirolactam derivatives and uses of same” (H. Lundbeck A/S, priority 2009, dated 2016).

For this assay, the target named is T1, human metabotropic glutamate receptor 5 (hmGluR5) (Homo sapiens, UniProt P41594).
T1 construct: expressed in transfected cells
T1 sequence (P41594 21-1212): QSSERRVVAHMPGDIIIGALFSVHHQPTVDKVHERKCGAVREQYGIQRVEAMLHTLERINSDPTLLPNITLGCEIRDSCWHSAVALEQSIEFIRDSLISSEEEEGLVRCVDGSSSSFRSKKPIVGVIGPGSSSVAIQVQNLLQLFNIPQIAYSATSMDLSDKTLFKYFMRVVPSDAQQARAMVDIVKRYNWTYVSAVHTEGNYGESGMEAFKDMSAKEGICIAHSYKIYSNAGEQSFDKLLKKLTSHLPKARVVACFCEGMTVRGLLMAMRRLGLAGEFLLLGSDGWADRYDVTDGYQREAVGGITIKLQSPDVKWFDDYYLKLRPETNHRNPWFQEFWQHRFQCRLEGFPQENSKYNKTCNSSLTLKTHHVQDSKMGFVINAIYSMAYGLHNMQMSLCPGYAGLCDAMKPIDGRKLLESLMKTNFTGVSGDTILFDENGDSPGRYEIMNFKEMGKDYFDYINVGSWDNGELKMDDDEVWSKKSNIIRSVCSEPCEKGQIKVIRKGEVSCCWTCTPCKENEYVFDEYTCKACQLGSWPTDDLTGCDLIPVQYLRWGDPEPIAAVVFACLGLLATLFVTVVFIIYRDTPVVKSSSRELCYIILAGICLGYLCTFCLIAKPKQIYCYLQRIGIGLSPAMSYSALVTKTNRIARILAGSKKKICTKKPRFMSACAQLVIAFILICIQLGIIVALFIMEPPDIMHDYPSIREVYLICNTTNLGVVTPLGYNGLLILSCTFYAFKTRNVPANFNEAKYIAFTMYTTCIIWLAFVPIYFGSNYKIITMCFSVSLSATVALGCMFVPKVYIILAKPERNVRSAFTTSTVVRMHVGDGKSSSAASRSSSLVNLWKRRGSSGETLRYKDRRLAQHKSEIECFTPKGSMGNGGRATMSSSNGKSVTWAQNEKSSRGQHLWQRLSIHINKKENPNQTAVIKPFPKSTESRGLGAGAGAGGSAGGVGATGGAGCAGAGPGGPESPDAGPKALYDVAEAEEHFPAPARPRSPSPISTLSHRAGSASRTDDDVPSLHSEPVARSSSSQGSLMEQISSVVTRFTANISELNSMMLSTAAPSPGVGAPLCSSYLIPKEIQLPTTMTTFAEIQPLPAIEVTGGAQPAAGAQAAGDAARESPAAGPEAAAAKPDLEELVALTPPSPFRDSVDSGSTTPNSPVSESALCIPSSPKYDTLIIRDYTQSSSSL
In words: Calcium mobilization (FLIPR) assay for negative allosteric modulation, EC80 glutamate, hmGluR5 in HEK 293. In kind it is cell-based. The settings on record: HEK293; hmGluR5, inhibition of EC80 glutamate response; read-out: FLIPR maximum inhibition. As to the method:
The cDNA for rat metabotropic glutamate receptor 5 (rmGluR5) and the cDNA for human metabotropic glutamate receptor 5 (hmGluR5) were generous gifts from S. Nakanishi (Kyoto University, Kyoto, Japan). The rmGluR5 or hmGluR5 was stably expressed in a HEK 293 cell line and grown in Dulbecco's Modified Eagle Medium (DMEM) (Invitrogen, Carlsbad, Calif.) with supplements (10% bovine calf serum, 4 mM glutamine, 100 units/mL penicillin, 100 μg/mL streptomycin and 0.75 mM G1418) at 37° C., 5% CO2. Twenty-four hours prior to assay, cells were seeded into 384-well black wall microtiter plates coated with poly-D-lysine. Just prior to assay, media was aspirated and cells dye-loaded (25 μL/well) with 3 μM Fluo-4/0.01% pluronic acid in assay buffer (Hank's Balanced Saline Solution (HBSS)): 150 mM NaCl, 5 mM KCl, 1 mM CaCl2, 1 mM MgCl2, plus 20 mM N-2-Hydroxyethylpiperazine-N′-2-ethanesulfonic acid (HEPES), pH 7.4, 0.1% bovine serum albumin (BSA) and 2.5 mM probenicid) for 1 hour in 5% CO2 at 37° C. After excess dye was discarded, cells were washed in assay buffer and layered with a final volume equal to 30 μL/well. Basal fluorescence is monitored in a fluorometric imaging plate reader (FLIPR) (Molecular Devices, Sunnyvale, Calif.) with an excitation wavelength of 488 nm and an emission range of 500 to 560 nm. Laser excitation energy was adjusted so that basal fluorescence readings were approximately 10,000 relative fluorescent units. Cells were stimulated with an EC20 or an EC80 concentration of glutamate in the presence of a compound to be tested, both diluted in assay buffer, and relative fluorescent units were measured at defined intervals (exposure=0.6 sec) over a 3 min period at room temperature. Basal readings derived from negative controls were subtracted from all samples. Maximum change in fluorescence was calculated for each well. Concentration-response curves derived from the maximum change in fluorescence were analyzed by nonlinear regression (Hill equation). A negative modulator can be identified from these concentration-response curves if a compound produces a concentration dependent inhibition of the EC80 glutamate response.
For orientation: Calcium flux is commonly read through the fluorescence of an indicator in the cells.
Consider `Cc1cccc(C(=O)N[C@@H]2CC(=O)C[C@@]3(CCN(c4cccc(F)c4)C3=O)C2)n1` (relative stereo) [Example 124, cis-6-Methyl-pyridine-2-carboxylic acid [2-(3-fluoro-phenyl)-1,9-dioxo-2-aza-spiro[4.5]dec-7-yl]-amide], for which the Emax lay within 47 to 93%.

As for `O=C(N[C@@H]1C[C@@H](O)C[C@@]2(CCN(c3cccc(F)c3)C2=O)C1)c1cccc(F)c1` (relative stereo) [Example 125, trans-3-Fluoro-N-[2-(3-fluoro-phenyl)-9-hydroxy-1-oxo-2-aza-spiro[4.5]dec-7-yl]-benzamide], the Emax lay in the range of 47 to 93%.

In the case of `Cc1cccc(C(=O)N[C@@H]2C[C@@H](O)C[C@@]3(CCN(c4cccc(F)c4)C3=O)C2)n1` (relative stereo) [Example 126, trans-6-Methyl-pyridine-2-carboxylic acid [2-(3-fluoro-phenyl)-9-hydroxy-1-oxo-2-aza-spiro[4.5]dec-7-yl]-amide], the Emax lay within 47 to 93%.

With `COc1cccc(N2CC[C@]3(CCC[C@H](NC(=O)c4cccc(F)c4)C3)C2=O)c1` (relative stereo) [Example 130, cis-3-Fluoro--N-[-2-(3-methoxy-phenyl)-1-oxo-2-aza-spiro[4.5]dec-7-yl]-benzamide], the Emax is 47 to 93%.

Turning to `O=C(N[C@H]1CCC[C@]2(CCN(c3cccc(O)c3)C2=O)C1)c1cccc(F)c1` (relative stereo) [Example 131, cis-3-Fluoro-N-[2-(3-hydroxy-phenyl)-1-oxo-2-aza-spiro[4.5]dec-7-yl]-benzamide], the Emax is 47 to 93%.

As to `COc1ccc(N2CC[C@]3(CCC[C@H](NC(=O)c4cccc(F)c4)C3)C2=O)cc1` (relative stereo) [Example 133], the Emax lay within 47 to 93%.

As for `O=C(N[C@H]1CCC[C@]2(CCN(c3cccc(CCCN4CCOCC4)c3)C2=O)C1)c1cccc(F)c1` (relative stereo) [Example 134, cis-3-Fluoro-N-{2-[3-(3-morpholin-4-yl-propyl)-phenyl]-1-oxo-2-aza-spiro[4.5]dec-7-yl}-benzamide], the Emax was 47 to 93%.

For `COc1cc(F)cc(N2CC[C@]3(CCC[C@H](NC(=O)c4cccc(F)c4)C3)C2=O)c1` (relative stereo) [Example 135, cis-3-Fluoro-N-[2-(3-fluoro-5-methoxy-phenyl)-1-oxo-2-aza-spiro[4.5]dec-7-yl]-benzamide], the Emax lay in the range of 47 to 93%.

Turning to `O=C(N[C@H]1CCC[C@]2(CCN(c3cccc(OCC(=O)N4CCCC4)c3)C2=O)C1)c1cccc(F)c1` (relative stereo) [Example 136, cis-3-Fluoro-N-{1-oxo-2-[3-(2-oxo-2-pyrrolidin-1-yl-ethoxy)-phenyl]-2-aza-spiro[4.5]dec-7-yl}-benzamide], the Emax lay within 47 to 93%.

Take `O=C(N[C@H]1CCC[C@]2(CCN(c3cccc(F)c3)C2=O)C1)c1nccs1` (relative stereo) [Example 137, cis-Thiazole-2-carboxylic acid [2-(3-fluoro-phenyl)-1-oxo-2-aza-spiro[4.5]dec-7-yl]-amide]: the Emax was 47 to 93%.

Take `CN(C)c1ccc(N2CC[C@]3(CCC[C@H](NC(=O)c4cccc(F)c4)C3)C2=O)cc1` (relative stereo) [Example 138, cis-N-[2-(4-Dimethylamino-phenyl)-1-oxo-2-aza-spiro[4.5]dec-7-yl]-3-fluoro-benzamide]: the Emax was in the range of 47 to 93%.

On to `O=C(N[C@H]1CCC[C@]2(CCN(c3nccs3)C2=O)C1)c1cccc(F)c1` (relative stereo) [Example 139, cis-3-Fluoro-N-(1-oxo-2-thiazol-2-yl-2-aza-spiro[4.5]dec-7-yl)-benzamide], for which the Emax lay within 47 to 93%.

`Cc1nccc(N2CC[C@]3(CCC[C@H](NC(=O)c4nccs4)C3)C2=O)n1` (relative stereo) [Example 140]: the Emax was in the range of 47 to 93%.

With `COc1cc(F)cc(N2CC[C@@]3(CCC[C@@H](NC(=O)c4ccnc(C)n4)C3)C2=O)c1` (relative stereo) [Example 141, cis-2-Methyl-pyrimidine-4-carboxylic acid [2-(3-fluoro-5-methoxy-phenyl)-1-oxo-2-aza-spiro[4.5]dec-7-yl]-amide], the Emax fell in the range of 47 to 93%.

On to `N#Cc1cc(F)cc(N2CC[C@@]3(CCC[C@@H](NC(=O)c4cccc(F)c4)C3)C2=O)c1` (relative stereo) [Example 142, cis-N-[2-(3-Cyano-5-fluoro-phenyl)-1-oxo-2-aza-spiro[4.5]dec-7-yl]-3-fluoro-benzamide], for which the Emax was 47 to 93%.

`O=C(N[C@@H]1CCC[C@@]2(CCN(c3cc(F)cc(F)c3)C2=O)C1)c1nccs1` (relative stereo) [Example 143, cis-Thiazole-2-carboxylic acid [2-(3,5-difluoro-phenyl)-1-oxo-2-aza-spiro[4.5]dec-7-yl]-amide]: the Emax was in the range of 47 to 93%.

For the molecule `Cc1nc(C(=O)N[C@@H]2CCC[C@@]3(CCN(c4cc(F)cc(F)c4)C3=O)C2)cs1` (relative stereo) [Example 144, cis-2-Methyl-thiazole-4-carboxylic acid [2-(3,5-difluoro-phenyl)-1-oxo-2-aza-spiro[4.5]dec-7-yl]-amide], the Emax is 47 to 93%.

With `CCCCC(=O)N[C@@H]1CCC[C@@]2(CCN(c3cc(F)cc(F)c3)C2=O)C1` (relative stereo) [Example 145, cis-Pentanoic acid [2-(3,5-difluoro-phenyl)-1-oxo-2-aza-spiro[4.5]dec-7-yl]-amide], the Emax fell in the range of 47 to 93%.

Consider `CCCC(=O)N[C@@H]1CCC[C@@]2(CCN(c3cc(F)cc(F)c3)C2=O)C1` (relative stereo) [Example 146, cis-N-[2-(3,5-Difluoro-phenyl)-1-oxo-2-aza-spiro[4.5]dec-7-yl]-butyramide], for which the Emax was in the range of 47 to 93%.

`Cc1nccc(N2CC[C@]3(CCC[C@H](NC(=O)c4ccc(F)cn4)C3)C2=O)n1` (relative stereo) [Example 149]: the Emax lay within 47 to 93%.

In the case of `O=C(N[C@H]1CCC[C@]2(CCN(c3ccnc(C(F)(F)F)n3)C2=O)C1)c1cccc(F)c1` (relative stereo) [Example 150, cis-3-Fluoro-N-[1-oxo-2-(2-trifluoromethyl-pyrimidin-4-yl)-2-aza-spiro[4.5]dec-7-yl]-benzamide], the Emax lay in the range of 47 to 93%.

As for `Cc1cc(N2CC[C@]3(CCC[C@H](NC(=O)c4cccc(F)c4)C3)C2=O)nc(C)n1` (relative stereo) [Example 151, cis-N-[2-(2,6-Dimethyl-pyrimidin-4-yl)-1-oxo-2-aza-spiro[4.5]dec-7-yl]-3-fluoro-benzamide], the Emax fell in the range of 47 to 93%.

For `Cc1cccc(C(=O)N[C@H]2CCC[C@]3(CCN(C)C3=O)C2)n1` (relative stereo) [Example 153], the Emax fell in the range of 47 to 93%.

With `CCN1CC[C@]2(CCC[C@H](NC(=O)c3cccc(C)n3)C2)C1=O` (relative stereo) [Example 154], the Emax lay in the range of 47 to 93%.

Turning to `CCCN1CC[C@]2(CCC[C@H](NC(=O)c3cccc(C)n3)C2)C1=O` (relative stereo) [Example 155], the Emax is 47 to 93%.

Consider `Cc1cccc(C(=O)N[C@@H]2CCC[C@@]3(CCN(c4cc(F)cc(F)c4)C3=O)C2)n1` (single isomer, unassigned) [Example 67], for which the Emax lay in the range of 73 to 95%.

With `Cc1cccc(C(=O)N[C@H]2CCC[C@]3(CCN(c4cc(F)cc(F)c4)C3=O)C2)n1` (single isomer, unassigned) [Example 81], the Emax is 73 to 95%.
